Source: patent publication US12269813B2, “Crystalline form of 1-(1-oxo-1,2-dihydroisoquinolin-5-yl)-5-(trifluoromethyl)-N-(2-(trifluoromethyl)pyridin-4-yl)-1H-pyrazole-4-carboxamide monohydrate” (Janssen Pharmaceutica NV, priority 2019, dated 2025)
Entries after “also recorded” stand apart in the source; their conditions may differ.

Key:
[1] = Moisture sorption analysis (dynamic vapor sorption, DVS); type: physicochemical; conditions: for hygroscopic behaviour: DVS, 0 to 95% RH at 25° C.; for loss of hydration water at low relative humidity: RH of 20% or less
Method: The moisture sorption analysis (DVS) was performed using a Surface Measurement Systems Advantage-1 dynamic vapor sorption apparatus. The moisture profile was evaluated by monitoring vapor adsorption/desorption over the range of 0 to 95% relative humidity at 25° C. The moisture profile consisted of 2 cycles of vapor adsorption/desorption.

[2] = Physical stability study with respect to water loss or uptake (water content by coulometric Karl Fischer); type: physicochemical
Method: The physical stability of Compound A monohydrate, Form III with respect to water loss or uptake was tested.
For the initial study, 0.5 g samples of monohydrate Form III were placed in double antistatic colourless LDPE bags and sealed.
For the long-term study (stability after 1 month and 3 months), 1.5 g samples of monohydrate Form III were placed in double antistatic colourless LDPE bags and sealed. The samples were stored at 30±2° C./75±5% RH and 40±2° C./75±5% RH in cardboard drums.
For the photostability study, 1.5 g of monohydrate Form III was placed into a petri dish and spread into a layer of no more than 3 mm thick. The petri dish was covered with quartz coverslips and sealed with parafilm. The photostability testing was carried out in line with ICH Q1B option 2 (ICH Harmonised Tripartite Guideline, Stability testing: Photostability testing of new drug substances and products, Q1B, Step 4 version, 6 Nov. 1996). Photostability samples were stored under separate lamps emitting visible and UV-A light, such that the total exposure was not less than 1.2 million lux hours and 200 Watt hours/m^2, respectively.
The water content of each of the samples was determined using a vaporized coulometric Karl Fischer method, in accordance with the US Pharmacopeia (USP <921> method IC; most recently appeared in Pharmacopeial Forum: Volume No. 38(1); Page information USP42/NF37-7092) and European Pharmacopeia 2.5.32 (Edition 10.0).

Row | SMILES | hygroscopic behaviour [1] | loss of hydration water at low relative humidity [1] | solid-state form change after the DVS test (XRPD pattern and IR spectrum) ([1]; fraction obtained after the DVS test vs starting material) | moisture adsorbed ([1]; humidity range 0-20% RH) | moisture adsorption and desorption ([1]; humidity range 20-95% RH, slow and reversible) | weight loss during the initial drying step (DVS change in mass plot) ([1]; initial drying step) | hygroscopic behaviour ([1]; monohydrate) | loss of hydration water at low relative humidity ([1]; monohydrate) | water uptake ([1]; at 80% relative humidity) | Water content (%) ([2]; 30° C./75% RH, 1 month) | Water content (%) ([2]; 30° C./75% RH, 3 months) | Water content (%) ([2]; 40° C./75% RH, 1 month) | Water content (%) ([2]; 40° C./75% RH, 3 months) | Water content (%) ([2]; Initial) | hygroscopic character concluded from the stability study ([2]; Table 3 storage conditions) | Water content (%) ([2]; photostability, 1 × ICH option 2)
1 | O=C(Nc1ccnc(C(F)(F)F)c1)c1cnn(-c2cccc3c(=O)[nH]ccc23)c1C(F)(F)F [Form I, 1-(1-oxo-1,2-dihydroisoquinolin-5-yl)-5-(trifluoromethyl)-N-[2-(trifluoromethyl)pyridin-4-yl]-1H-pyrazole-4-carboxamide (Compound A) hydrate, Form I] | hygroscopic | lost at RH of 20% and less | No indication of a solid-state form change | 4.1-4.2% | 1.8% | ~2.7% |  |  |  |  |  |  |  |  |  | 
2 | O=C(Nc1ccnc(C(F)(F)F)c1)c1cnn(-c2cccc3c(=O)[nH]ccc23)c1C(F)(F)F [Form III, 1-(1-oxo-1,2 dihydroisoquinolin-5-yl)-5-(trifluoromethyl)-N-(2-(trifluoromethyl)pyridin-4-yl)-1H-pyrazole-4-carboxamide (Compound A) monohydrate] |  |  |  |  |  |  | non-hygroscopic | does not lose water; also recorded: avoids loss of water | less than 0.2% | 3.3% | 3.8% | 3.3% | 3.2% | 3.4% | non-hygroscopic | 3.4%
